Target: SARS-CoV M^pro (Severe acute respiratory syndrome coronavirus, UniProt P0C6X7)
Type: biochemical

| Structure (SMILES) | Increase in IC50 relative to compound 2 |
| --- | --- |
| O=C(Oc1cncc(Cl)c1)c1ccc(-c2cccc([N+](=O)[O-])c2)o1 [compound 5] | eightfold |
| O=C(Oc1cncc(Cl)c1)c1ccc(-c2ccccc2[N+](=O)[O-])o1 [compound 4] | threefold |

Reference: publication PMC7127602 (Bioorganic & Medicinal Chemistry, 2007)
